The record followed here is patent publication US9617283B2, “Bicyclic heterocycle compounds and their uses in therapy” (ASTEX THERAPEUTICS LIMITED, priority 2012, dated 2017).

The assay relates to EVSA-T (human breast carcinoma). In words: Anti-proliferative activity, Alamar Blue assay, EVSA-T. The assay is classed as cell-based.
Setting [1] is: Homo sapiens, EVSA-T, read-out: EC50 in EVSA-T cell line assays.
Setting [2] is: Homo sapiens, EVSA-T, 72 h, EVSA-T cell line, 72 hours, Alamar Blue, read-out: EVSA-T prolif.
Setting [3] is: Homo sapiens, EVSA-T cell line, 72 hours, Alamar Blue, read-out: EVSA-T prolif.
Setting [4] is: EVSA-T cell line, 72 hours, Alamar Blue, dihydrochloride, read-out: EVSA-T prolif.

Structures can show the parent of a compound that is named as a salt. Where two headings read alike, the source gives them in different places.

Protocol: Anti-Proliferative Activity
The method is based on the ability of viable cells to reduce resazurin to its fluorescent product resorufin. For each proliferation assay cells are plated onto 96 well plates and allowed to recover for 16 hours prior to the addition of inhibitor compounds (in 0.1% DMSO v/v) for a further 72 hours. […] The anti-proliferative activities of compounds of the invention can be determined by measuring the ability of the compounds to inhibit growth in 3 cancer cell lines: • EVSA-T (human breast carcinoma) DSMZ cat. no.

Consider `C[C@@H]1CN(CC(=O)N2CC(C)(C)c3nnc(Cc4ccc(F)cc4F)cc32)[C@@H](CN2C[C@H](C)OCC2=O)CN1` [Example 52, (6S)-4-{[(2R,5R)-1-(2-{3-[(2,4-Difluorophenyl)methyl]-7,7-dimethyl-5H,6H,7H-pyrrolo[3,2-c]pyridazin-5-yl}-2-oxoethyl)-5-methylpiperazin-2-yl]methyl}-6-methylmorpholin-3-one], for which the EC50 under setting [1] is less than 1000 nM. On to `COC[C@@H]1CN(C[C@H]2CN[C@H](C)CN2CC(=O)N2CC(C)(C)c3nnc(Cc4ccc(F)cc4F)cc32)C(=O)CO1` [Example 101, (6S)-4-{[(2R,5R)-1-(2-{3-[(2,4-Difluorophenyl)methyl]-7,7-dimethyl-5H,6H,7H-pyrrolo[3,2-c]pyridazin-5-yl}-2-oxoethyl)-5-methylpiperazin-2-yl]methyl}-6-(methoxymethyl)morpholin-3-one dihydrochloride], for which the EC50 is 25 nM under setting [2] and less than 1000 nM under setting [1]. In the case of `CCCC(F)(F)c1cc2c(nn1)C(C)(C)CN2C(=O)CN1C[C@@H](C)NC[C@@H]1CN1Cc2ncccc2C1=O` [Example 67, 6-{[(2R,5R)-1-{2-[3-(1,1-Difluorobutyl)-7,7-dimethyl-5H,6H,7H-pyrrolo[3,2-c]pyridazin-5-yl]-2-oxoethyl}-5-methylpiperazin-2-yl]methyl}-5H,6H,7H-pyrrolo[3,4-b]pyridin-5-one], the EC50 under setting [1] is less than 1000 nM. For `C[C@H]1CC(=O)N(C[C@H]2CN[C@H](C)CN2CC(=O)N2CC(C)(C)c3nnc(Cc4ccc(F)cc4F)cc32)C1` [Example 46, (4S)-1-{[(2R,5R)-1-(2-{3-[(2,4-Difluorophenyl)methyl]-7,7-dimethyl-5H,6H,7H-pyrrolo[3,2-c]pyridazin-5-yl}-2-oxoethyl)-5-methylpiperazin-2-yl]methyl}-4-methylpyrrolidin-2-one dihydrochloride], the EC50 runs as follows: under setting [2], 2.3 nM; under setting [1], less than 1000 nM. Consider `COc1ccc2c(c1)CN(C[C@H]1CN[C@H](C)CN1CC(=O)N1CC(C)(C)c3ncc(Cc4ccc(F)cc4)cc31)C2=O` [Example 94, 2-{[(2R,5R)-1-(2-{6-[(4-Fluorophenyl)methyl]-3,3-dimethyl-1H,2H,3H-pyrrolo[3,2-b]pyridin-1-yl}-2-oxoethyl)-5-methylpiperazin-2-yl]methyl}-5-methoxy-2,3-dihydro-1H-isoindol-1-one dihydrochloride], for which, under setting [3], the EC50 is 4.8 nM.

Regarding `C[C@@H]1CN(CC(=O)N2CC(C)(C)c3ncc(Cc4ccc(F)cc4)cc32)[C@@H](CN2C[C@H](C)N(C)CC2=O)CN1` [Example 43, (5S)-1-{[(2R,5R)-1-(2-{6-[(4-Fluorophenyl)methyl]-3,3-dimethyl-1H,2H,3H-pyrrolo[3,2-b]pyridin-1-yl}-2-oxoethyl)-5-methylpiperazin-2-yl]methyl}-4,5-dimethylpiperazin-2-one dihydrochloride], the EC50 is, setting by setting: under setting [2], 12 nM; under setting [1], less than 1000 nM.

As for `C[C@@H]1CN(CC(=O)N2CC(C)(C)c3ncc(Cc4ccc(F)cc4)cc32)[C@@H](CN2CC(C)(C)OCC2=O)CN1` [Example 97, 4-{[(2R,5R)-1-(2-{6-[(4-Fluorophenyl)methyl]-3,3-dimethyl-1H,2H,3H-pyrrolo[3,2-b]pyridin-1-yl}-2-oxoethyl)-5-methylpiperazin-2-yl]methyl}-6,6-dimethylmopholin-3-one dihydrochloride], the EC50 by setting is: under setting [2], 9 nM; under setting [1], less than 1000 nM.

For the molecule `C[C@@H]1CN(CC(=O)N2CC(C)(C)c3ncc(Cc4ccc(F)cc4)cc32)[C@@H](CN2Cc3ncccc3C2=O)CN1` [Example 15, 6-{[(2R,5R)-1-(2-{6-[(4-Fluorophenyl)methyl]-3,3-dimethyl-1H,2H,3H-pyrrolo[3,2-b]pyridin-1-yl}-2-oxoethyl)-5-methylpiperazin-2-yl]methyl}-5H,6H,7H-pyrrolo[3,4-b]pyridin-5-onne dihydrochloride], the EC50 under setting [3] came to 0.63 nM. Still for that read-out and setting: with `C[C@@H]1CN(CC(=O)N2CC(C)(C)c3nnc(Cc4ccc(F)cc4F)cc32)[C@@H](CN2Cc3ccc(F)cc3C2=O)CN1` [Example 93, 2-{[(2R,5R)-1-(2-{3-[(2,4-Difluorophenyl)methyl]-7,7-dimethyl-5H,6H,7H-pyrrolo[3,2-c]pyridazin-5-yl}-2-oxoethyl)-5-methylpiperazin-2-yl]methyl}-6-fluoro-2,3-dihydro-1H-isoindol-1-one dihydrochloride] the figure was 0.5 nM.

With `C[C@@H]1CN(CC(=O)N2CC(C)(C)c3ncc(Cc4ccc(F)cc4)cc32)[C@@H](CN2C(=O)[C@@H]3CC[C@H]2C3)CN1` [Example 8, (1S,4R)-2-{[(2R,5R)-1-(2-{6-[(4-Fluorophenyl)methyl]-3,3-dimethyl-1H,2H,3H-pyrrolo[3,2-b]pyridin-1-yl}-2-oxoethyl)-5-methylpiperazin-2-yl]methyl}-2-azabicyclo[2.2.1]heptan-3-one dihydrochloride], the EC50 is 7.1 nM under setting [2] and less than 1000 nM under setting [1].

Take `CCCC(F)(F)c1cc2c(cn1)C(C)(C)CN2C(=O)CN1C[C@@H](C)NC[C@@H]1CN1CC(CC)OCC1=O` (single isomer, unassigned) [Example 89, 4-{[(2R,5R)-1-{2-[6-(1,1-Difluorobutyl)-3,3-dimethyl-1H,2H,3H-pyrrolo[3,2-c]pyridin-1-yl]-2-oxoethyl}-5-methylpiperazin-2-yl]methyl}-(R or S)-6-ethylmorpholin-3-one dihydrochloride]: the EC50 under setting [4] worked out at 6.5 nM.

With `C[C@@H]1CN(CC(=O)N2CC(C)(C)c3nnc(Cc4ccc(F)cc4F)cc32)[C@@H](CN2Cc3ccc(C#N)cc3C2=O)CN1` [Example 114, 2-{[(2R,5R)-1-(2-{3-[(2,4-Difluorophenyl)methyl]-7,7-dimethyl-5H,6H,7H-pyrrolo[3,2-c]pyridazin-5-yl}-2-oxoethyl)-5-methylpiperazin-2-yl]methyl}-3-oxo-2,3-dihydro-1H-isoindole-5-carbonitrile dihydrochloride], under setting [3], the EC50 is 1.4 nM. In the case of `CCC1CC(=O)N(C[C@H]2CN[C@H](C)CN2CC(=O)N2CC(C)(C)c3ncc(Cc4ccc(F)cc4)cc32)C1` (single isomer, unassigned) [Example 86, (4R or 4S)-4-Ethyl-1-{[(2R,5R)-1-(2-{6-[(4-fluorophenyl)methyl]-3,3-dimethyl-1H,2H,3H-pyrrolo[3,2-b]pyridin-1-yl}-2-oxoethyl)-5-methylpiperazin-2-yl]methyl}pyrrolidin-2-one dihydrochloride], the EC50 under setting [4] is 1.7 nM.

For the molecule `C[C@@H]1CN(CC(=O)N2CC(C)(C)c3nnc(Cc4ccc(F)cc4)cc32)[C@@H](CN2Cc3ncccc3C2=O)CN1` [Example 65, 6-{[(2R,5R)-1-(2-{3-[(4-Fluorophenyl)methyl]-7,7-dimethyl-5H,6H,7H-pyrrolo[3,2-c]pyridazin-5-yl}-2-oxoethyl)-5-methylpiperazin-2-yl]methyl}-5H,6H,7H-pyrrolo[3,4-b]pyridin-5-one], the EC50 under setting [1] is less than 1000 nM. `C[C@@H]1CC(=O)N(C[C@H]2CN[C@H](C)CN2CC(=O)N2CC(C)(C)c3ncc(Cc4ccc(F)cc4)cc32)C1` [Example 16, (4R)-1-{[(2R,5R)-1-(2-{6-[(4-Fluorophenyl)methyl]-3,3-dimethyl-1H,2H,3H-pyrrolo[3,2-b]pyridin-1-yl}-2-oxoethyl)-5-methylpiperazin-2-yl]methyl}-4-methylpyrrolidin-2-one dihydrochloride]: the EC50 under setting [2] came to 6 nM. On to `C[C@@H]1CN(CC(=O)N2CC(C)(C)c3ncc(Cc4ccc(F)cc4)cc32)[C@@H](CN2C[C@@H](C)OC2=O)CN1` [Example 9, (5R)-3-{[(2R,5R)-1-(2-{6-[(4-Fluorophenyl)methyl]-3,3-dimethyl-1H,2H,3H-pyrrolo[3,2-b]pyridin-1-yl}-2-oxoethyl)-5-methylpiperazin-2-yl]methyl}-5-methyl-1,3-oxazolidin-2-one], for which the EC50 by setting is: under setting [2], 5.9 nM; under setting [1], less than 1000 nM. For `C[C@@H]1CN(CC(=O)N2CC(C)(C)c3ncc(Cc4ccc(F)cc4)cc32)[C@@H](CN2CCOCCC2=O)CN1` [Example 2, 4-{[(2R,5R)-1-(2-{6-[(4-Fluorophenyl)methyl]-3,3-dimethyl-1H,2H,3H-pyrrolo[3,2-b]pyridin-1-yl}-2-oxoethyl)-5-methylpiperazin-2-yl]methyl}-1,4-oxazepan-5-one hydrochloride] the same measures were 6.5 nM and less than 1000 nM.

On to `C[C@@H]1CN(CC(=O)N2CC(C)(C)c3nnc(Cc4ccc(F)cc4F)cc32)[C@@H](CN2Cc3cc(F)ccc3C2=O)CN1` [Example 103, 2-{[(2R,5R)-1-(2-{3-[(2,4-Difluorophenyl)methyl]-7,7-dimethyl-5H,6H,7H-pyrrolo[3,2-c]pyridazin-5-yl}-2-oxoethyl)-5-methylpiperazin-2-yl]methyl}-5-fluoro-2,3-dihydro-1H-isoindol-1-one dihydrochloride], for which, under setting [3], the EC50 is 0.18 nM.

On to `CCCC(F)(F)c1cc2c(cn1)C(C)(C)CN2C(=O)CN1C[C@@H](C)NC[C@@H]1CN1CC(CC)OCC1=O` (single isomer, unassigned) [Example 88, 4-{[(2R,5R)-1-{2-[6-(1,1-Difluorobutyl)-3,3-dimethyl-1H,2H,3H-pyrrolo[3,2-c]pyridin-1-yl]-2-oxoethyl}-5-methylpiperazin-2-yl]methyl}-(R or S)-6-ethylmorpholin-3-one dihydrochloride], for which the EC50 is 14 nM under setting [4] and less than 1000 nM under setting [1].

For `C[C@@H]1CN(CC(=O)N2CC(C)(C)c3nnc(Cc4ccc(F)cc4F)cc32)[C@@H](CN2Cc3cc(C#N)ccc3C2=O)CN1` [Example 109, 2-{[(2R,5R)-1-(2-{3-[(2,4-Difluorophenyl)methyl]-7,7-dimethyl-5H,6H,7H-pyrrolo[3,2-c]pyridazin-5-yl}-2-oxoethyl)-5-methylpiperazin-2-yl]methyl}-1-oxo-2,3-dihydro-1H-isoindole-5-carbonitrile dihydrochloride], under setting [3], the EC50 worked out at 0.64 nM.
